Measurements reported in patent US7572819B2, “Compounds which potentiate glutamate receptor and uses thereof in medicine” (Glaxo Group Limited, priority 2004, dated 2009).

Molecular target: T1, human GluR2 flip (unedited) AMPA receptor subunit (Homo sapiens, UniProt P42262)
T1 construct: expressed in transfected cells; host or cells: HEK 293 cells, stably expressing or transiently transfected
Test: Calcium influx fluorescence assay (FLUO4, FLIPR)
Assay type: cell-based
Settings: HEK 293 cells expressing human GluR2 flip (unedited); 100 μM glutamate; peak fluorescence
Protocol: The ability of the compounds of the invention to potentiate glutamate receptor-mediated response were determined a) by using fluorescent calcium-indicator dyes such as FLUO4 and additionally for some example compounds, b) by measuring glutamate-evoked current recorded from human GluR2 flip unedited HEK293 cells. • a) Calcium Influx Fluorescence Assay
384 well plates were prepared containing confluent monolayer of HEK 293 cells either stably expressing or transiently transfected with human GluR2 flip (unedited) AMPA receptor subunit. These cells form functional homotetrameric AMPA receptors. […]
The cell plate was then transferred into a fluorescence imaging plate based reader [such as the FLIPR384 (Molecular Devices)]. A baseline fluorescence reading was taken over a 10 to 240 second period, and then 10 μL from each plate containing a compound of the invention made up in standard buffer solution (in a concentration range from 100 μM to 10 pM) was added (to give a final concentration in the range 30 μM to 3 pM). The fluorescence was read over 5 minute period. […] The fluoresecence was then read over a 4 minute period. The activities of the compounds of the invention and reference compounds were determined by measuring peak fluorescence after the last addition. […]

T1 sequence (P42262 25-883 isoform P42262-2 limits assumed): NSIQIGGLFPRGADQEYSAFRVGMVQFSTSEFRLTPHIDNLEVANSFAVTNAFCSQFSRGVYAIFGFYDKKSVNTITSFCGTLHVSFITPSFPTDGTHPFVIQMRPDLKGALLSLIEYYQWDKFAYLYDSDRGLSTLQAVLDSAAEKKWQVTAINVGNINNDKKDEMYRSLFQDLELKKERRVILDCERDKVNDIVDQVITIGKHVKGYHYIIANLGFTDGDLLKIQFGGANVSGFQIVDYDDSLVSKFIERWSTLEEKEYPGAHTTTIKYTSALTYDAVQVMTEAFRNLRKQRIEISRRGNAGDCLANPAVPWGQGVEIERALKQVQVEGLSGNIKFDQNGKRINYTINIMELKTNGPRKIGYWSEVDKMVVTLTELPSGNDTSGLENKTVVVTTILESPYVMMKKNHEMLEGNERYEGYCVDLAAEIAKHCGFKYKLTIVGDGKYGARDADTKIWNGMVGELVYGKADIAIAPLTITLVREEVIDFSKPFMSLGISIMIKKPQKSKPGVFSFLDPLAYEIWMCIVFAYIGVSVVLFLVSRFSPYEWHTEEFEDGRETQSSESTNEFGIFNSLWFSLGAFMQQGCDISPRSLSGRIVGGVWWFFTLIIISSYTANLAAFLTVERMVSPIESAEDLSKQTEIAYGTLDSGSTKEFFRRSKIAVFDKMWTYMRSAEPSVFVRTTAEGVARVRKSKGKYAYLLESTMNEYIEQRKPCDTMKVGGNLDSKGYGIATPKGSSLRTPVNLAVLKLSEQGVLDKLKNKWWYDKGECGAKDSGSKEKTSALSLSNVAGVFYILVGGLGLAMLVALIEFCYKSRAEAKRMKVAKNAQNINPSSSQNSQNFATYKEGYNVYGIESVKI

CC(C)S(=O)(=O)NC1Cc2ccc(-c3ccsc3)cc2C1 (stereo not shown) [Example 4, N-[5-(3-thienyl)-2,3-dihydro-1H-inden-2-yl]-2-propanesulfonamide]
EC50: 10 µM
